US20040167226A1, “Methods for the treatment of pain and traumatic injury using benzamides and compositions containing the same” (priority 2002, published 2004)

Experiments:
[1] = Solubility of Compound A in dosing vehicles; type: physicochemical
Method: PEG-200 formulation for i.p. administration of Compound A: PEG-200 was diluted in deionized destilled water to give a final concentration of 75% (volume/volume). Compound A was weighed to yield a final concentration of 10 mg/ml in 75% PEG-200 vehicle and sonicated for 12×30 seconds with 5 second intervals on ice to generate a Compound A suspension. 100 μL of either Compound A suspension or control vehicle (75% PEG-200) per 20 grams of mice (body weight) was administered via i.p., thus yielding a dose of 50 mg/kg (body weight).
Cremophor EL/alcohol/saline formulation for i.p. administration of Compound A: 40 mg/ml, 20 mg/ml or 10 mg/ml of Compound A was dissolved in Cremophor EL/alcohol (90:10) (volume:volume), respectively, by brief sonication on ice, then freshly diluted 10-fold in saline solution (9% Cremophor EL; 1% ETOH and 90% saline) to give a final concentration of 4 mg/ml, 2 mg/ml and 1 mg/ml, respectively, before injection. 100 μL of Compound A solution at a concentration of […] was administered via i.p. to mice (per 20 grams of body weight), thus yielding a dose of 20 mg/kg (body weight), 10 mg/kg (body weight), and 5 mg/kg (body weight), respectively. The control vehicle was 9% Cremophor EL/1% ETOH/90% saline. […]

[2] = test system: TNFα; assay: Immunohistochemistry for inflammatory marker TNFα on contused spinal cord; type: in vivo; conditions: rats after contusion injury; 72 h post-injury, 1 mm caudal to epicenter
Method: (§1) Compound A was tested in both the rat dorsal hemisection (Guth, L. et al. (1980), J. Neurosurgery 52: 73-86) and contusion models (Scheff, S. W. (2003), J. Neurotrauma 20: 179-193) for evaluation of efficacy. These models are widely used in the field of spinal cord injury and replicate many of the pathological aspects found in humans who have sustained a spinal cord injury. Rats were subjected to an experimental spinal cord injury at T8, and were given Compound A shortly thereafter. Behavioral tests to assess the locomotion deficits were performed after the lesion. At the end of the experiment, animals were sacrificed and the spinal cord was collected for histopathological analysis. […] Histological assessment of the tissue at the site of injury was also made in both the drug treated and untreated group. In particular, subsequent to the behavioral measurement, spinal cord tissue from each animal was obtained and serial transverse tissue sections were stained with either anti-neurofilament antibody or antibodies specific for the inflammatory markers, tumor necrosis factor alpha (TNFα) and for the inducible form of nitric oxide synthetase (iNOS), followed by incubation with Alexa Fluor®-conjugated secondary antibodies.
(§2) Histological assessment of the tissue at the site of injury was also made in both the drug treated and untreated group. […]

[3] = test system: contused spinal cord injury; assay: Spinal cord injury, contusion model, BBB locomotor score; type: in vivo, Sprague-Dawley rats; conditions: SCI Study No. 4; 14 day contusion; rats; 20 mg/kg BID i.p., 75% PEG200 formulation
Method: as §1, with “In particular, subsequent to the behavioral measurement, spinal cord tissue from each animal was obtained and serial transverse tissue sections were stained with either anti-neurofilament antibody or antibodies specific for the inflammatory markers, tumor necrosis factor alpha (TNFα) and for the inducible form of nitric oxide synthetase (iNOS), followed by incubation with Alexa Fluor®-conjugated secondary antibodies.” left out
The BBB score is a 21-point scale representing 21 stages of locomotor recovery after spinal cord injury. The scale is based on unique combinations of scored behaviors, ranked according to time of appearance after injury. […]

[4] = test system: iNOS; assay: Immunohistochemistry for inflammatory marker iNOS on contused spinal cord; type: in vivo; conditions: rats after contusion injury; 72 h post-injury, 1 mm caudal to epicenter
Method: as §1, §2

Compound: CC(=O)Nc1ccc(C(=O)NC(C)(C)C)cc1 [Compound A, N-tert-butyl-4-acetamidobenzamide]
- solubility in 9% Cremophor EL, 1% ETOH and 90% saline ([1]; 9% Cremophor EL, 1% ETOH, 90% saline vehicle): quite soluble
- solubility in 75% PEG-200 ([1]; 75% PEG-200 vehicle): not soluble
- inflammatory marker TNFα in the region of the corticospinal tract vs untreated control [2]: decreased
- functional neurological outcome, BBB score [3]: no significant effects were observed
- inflammatory marker iNOS in the region of the corticospinal tract vs untreated control [4]: decreased
